Results taken from US20190077795A1, “ARGININE […] INHIBITORS AND USES THEREOF” (Epizyme, Inc., priority 2014, published 2019).
Where two headings read alike, the source gives them in different places.

What was measured:
[1] = tested on: mono-methyl arginine in RKO cells; test: RKO Methylation Assay, In Cell Western (ICW); assay type: cell-based; settings: 72 hours
Text: RKO adherent cells were purchased from ATCC (American Type Culture Collection), Manassas, Va., USA. DMEM/Glutamax medium, penicillin-streptomycin, heat inactivated fetal bovine serum, 0.05% trypsin and D-PBS were purchased from Life Technologies, Grand Island, N.Y., USA. Odyssey blocking buffer, 800CW goat anti-rabbit IgG (H+L) antibody, and Licor Odyssey infrared scanner were purchased from Licor Biosciences, Lincoln, Nebr., USA. Mono-methyl arginine antibody was purchased from Cell Signaling Technology, Danvers, Mass., USA. Methanol was purchased from VWR, Franklin, Mass., USA. 10% Tween 20 was purchased from KPL, Inc., Gaithersburg, Md., USA. DRAQ5 was purchased from Biostatus Limited, Leicestershire, UK.
RKO adherent cells were maintained in growth medium (DMEM/Glutamax medium supplemented with 10% v/v heat inactivated fetal bovine serum and 100 units/mL penicillin-streptomycin) and cultured at 37° C. under 5% CO2.
Cell treatment, In Cell Western (ICW) for detection of mono-methyl arginine and DNA content.
Compound (100 nL) from a 96-well source plate was added directly to 384 well cell plate. Plates were incubated at 37° C., 5% CO2 for 72 hours. After three days of incubation, plates were brought to room temperature outside of the incubator for ten minutes and blotted on paper towels to remove cell media. 50 μL of ice cold 100% methanol was added directly to each well and incubated for 30 min at room temperature. After 30 min, plates were transferred to a Biotek EL406 plate washer and washed 2 times with 100 μL per well of wash buffer (1×PBS). Next 60 μL per well of Odyssey blocking buffer (Odyssey Buffer with 0.1% Tween 20 (v/v)) were added to each plate and incubated 1 hour at room temperature. Blocking buffer was removed and 20 μL per well of primary antibody was added (mono-methyl arginine diluted 1:200 in Odyssey buffer with 0.1% Tween 20 (v/v)) and plates were incubated overnight (16 hours) at 4° C. Plates were washed 5 times with 100 μL per well of wash buffer. […] The plates were washed 5 times with 100 μL per well wash buffer then 2 times with 100 μL per well of water. Plates were allowed to dry at room temperature then imaged on the Licor Odyssey machine which measures integrated intensity at 700 nm and 800 nm wavelengths. Both 700 and 800 channels were scanned.
First, the ratio for each well was determined by:
Each plate included fourteen control wells of DMSO only treatment (minimum activation) as well as fourteen control wells for maximum activation treated with 20 μM of a reference compound. The average of the ratio values for each control type was calculated and used to determine the percent activation for each test well in the plate. Reference compound was serially diluted three-fold in DMSO for a total of nine test concentrations, beginning at 20 μM. Percent activation was determined and EC30 curves were generated using triplicate wells per concentration of compound.

human PRMT1 = biological target: T1, human PRMT1 (Homo sapiens, UniProt Q99873); test: PRMT1 Biochemical Assay; settings: peptide substrate, 3H-SAM Flashplate assay; read-out: PRMT1 IC50
T1 construct: GST-tagged PRMT1; made in house; host or cells: High Five insect cells (baculovirus, pFastBac1)
Text: (§1) S-adenosylmethionine (SAM), S-adenosylhomocysteine (SAH), bicine, Tween20, dimethylsulfoxide (DMSO), bovine skin gelatin (BSG), and Tris(2-carboxyethyl)phosphine hydrochloride solution (TCEP) were purchased from Sigma-Aldrich at the highest level of purity possible. ^3H-SAM was purchase from American Radiolabeled Chemicals with a specific activity of 80 Ci/mmol. 384-well streptavidin Flashplates were purchased from PerkinElmer.
Recombinant baculovirus were generated according to Bac-to-Bac kit instructions (Life Technologies). […] Infections were carried out at 27° C. for 48 hours, harvested by centrifugation, and stored at −80° C. for purification.
GST-tagged PRMT1 was eluted with 50 mM Tris, 2 mM glutathione, pH 7.8, dialysed in buffer A and concentrated to 1 mg/mL.
General Procedure for PRMT1 Enzyme Assays on Peptide Substrates.
(§2) The assays were all performed in a buffer consisting of 20 mM Bicine (pH=7.6), 1 mM TCEP, 0.005% BSG, and 0.002% Tween 20, prepared on the day of use. […] DMSO (1 ul) was added to Columns 11, 12, 23, 24, rows A-H for the maximum signal control and 1 ul of SAH, a known product and inhibitor of PRMT1, was added to columns 11, 12, 23, 24, rows I-P for the minimum signal control. A cocktail (40 ul) containing the PRMT1 enzyme was added by Multidrop Combi (Thermo-Fisher). The compounds were allowed to incubate with PRMT1 for 30 min at room temperature, then a cocktail (10 ul) containing SAM and peptide was added to initiate the reaction (final volume=51 ul). […] The assays were stopped by the addition of non-radiolabeled SAM (10 ul) to a final concentration of 300 uM, which dilutes the ^3H-SAM to a level where its incorporation into the peptide substrate is no longer detectable. 50 ul of the reaction in the 384-well polypropylene plate was then transferred to a 384-well Flashplate and the biotinylated peptides were allowed to bind to the streptavidin surface for at least 1 hour before being washed once with 0.1% Tween20 in a Biotek ELx405 plate washer. The plates were then read in a PerkinElmer TopCount plate reader to measure the quantity of ^3H-labeled peptide bound to the Flashplate surface, measured as disintegrations per minute (dpm) or alternatively, referred to as counts per minute (cpm).
(§3) Where dpm=disintegrations per minute, cmpd=signal in assay well, and min and max are the respective minimum and maximum signal controls.
(§4) Where top and bottom are the normally allowed to float, but may be fixed at 100 or 0 respectively in a 3-parameter fit. The Hill Coefficient normally allowed to float but may also be fixed at 1 in a 3-parameter fit. Y is the % inhibition and X is the compound concentration.

human PRMT8 = human PRMT8 (Homo sapiens, UniProt Q9NR22); test: PRMT8 Biochemical Assay; settings: PRMT8 IC50 (uM), peptide substrate, 3H-SAM Flashplate assay
Text: S-adenosylmethionine (SAM), S-adenosylhomocysteine (SAH), bicine, Tween20, dimethylsulfoxide (DMSO), bovine skin gelatin (BSG), isopropyl-3-D-thiogalactopyranoside (IPTG), and Tris(2-carboxyethyl)phosphine hydrochloride solution (TCEP) were purchased from Sigma-Aldrich at the highest level of purity possible. ^3H-SAM was purchase from American Radiolabeled Chemicals with a specific activity of 80 Ci/mmol. 384-well streptavidin Flashplates were purchased from PerkinElmer.
E. coli (BL21(DE3) Gold, Stratagene) made competent by the CaCl2 method were transformed with the PRMT8 construct and ampicillin selection. Protein over-expression was accomplished by growing the PRMT8 expressing E. coli clone and inducing expression with 0.3 mM IPTG at 16° C. The culture was grown for 12 hours, harvested by centrifugation, and stored at −80° C. for purification.
GST-tagged PRMT8 was eluted with 50 mM Tris, 2 mM glutathione, pH 7.8. Pooled fractions were cleaved by thrombin (10U) and dialysed in buffer A. GST was removed by reloading the cleaved protein sample onto glutathione sepharose column and PRMT8 was collected in the flow-through fractions. PRMT8 was purified further by ceramic hydroxyapatite chromatography. The column was washed with 50 mM phosphate buffer, 100 mM NaCl, 5% glycerol, 5 mM β-mercaptoethanol, pH 7.8 and PRMT8 was eluted by 100 mM phosphate in the same buffer. Protein was concentrated and buffer was exchanged to 50 mM Tris, 300 mM NaCl, 10% glycerol, 5 mM β-mercaptoethanol, pH 7.8 by ultrafiltration.
General Procedure for PRMT8 Enzyme Assays on Peptide Substrates.
The assays were all performed in a buffer consisting of 20 mM Bicine (pH=7.6), 1 mM TCEP, 0.005% BSG, and 0.002% Tween 20, prepared on the day of use. […] DMSO (1 ul) was added to Columns 11, 12, 23, 24, rows A-H for the maximum signal control and 1 ul of SAH, a known product and inhibitor of PRMT8, was added to columns 11, 12, 23, 24, rows I-P for the minimum signal control. A cocktail (40 ul) containing the PRMT8 enzyme was added by Multidrop Combi (Thermo-Fisher). The compounds were allowed to incubate with PRMT8 for 30 min at room temperature, then a cocktail (10 ul) containing ^3H-SAM and peptide was added to initiate the reaction (final volume=51 ul). […] The assays were stopped by the addition of non-radiolabeled SAM (10 ul) to a final concentration of 400 uM, which dilutes the ^3H-SAM to a level where its incorporation into the peptide substrate is no longer detectable. 50 ul of the reaction in the 384-well polypropylene plate was then transferred to a 384-well Flashplate and the biotinylated peptides were allowed to bind to the streptavidin surface for at least 1 hour before being washed once with 0.1% Tween20 in a Biotek ELx405 plate washer. The plates were then read in a PerkinElmer TopCount plate reader to measure the quantity of ^3H-labeled peptide bound to the Flashplate surface, measured as disintegrations per minute (dpm) or alternatively, referred to as counts per minute (cpm).

human PRMT6 = biological target: T2, human PRMT6 (Homo sapiens, UniProt Q96LA8); test: PRMT6 Biochemical Assay
T2 construct: Flag-PRMT6-His; made in house; host or cells: HEK 293F cells (BacMam baculovirus, pFastBacMam)
Text: as §1, with “(BSG), sodium butyrate” for “(BSG),”
Peptide representative of human histone H4 residues 36-50 was synthesized with an N-terminal linker-affinity tag motif and a C-terminal amide cap by 21st Century Biochemicals.
The amplified gene was subcloned into pFastBacMam (Viva Biotech).
Recombinant baculovirus were generated according to Bac-to-Bac kit instructions (Life Technologies). […] Infections were carried out at 37° C. for 48 hours, harvested by centrifugation, and stored at −80° C. for purification.
Column was washed with 20 mM imidazole in the same buffer and Flag-PRMT6-His was eluted with 150 mM imidazole. Pooled fractions were dialysed against buffer Ni-A and further purified by anti-flag M2 affinity chromatography. Flag-PRMT6-His was eluted with 200 ug/ml FLAG peptide in the same buffer. Pooled fractions were dialysed in 20 mM Tris, 150 mM NaCl, 10% glycerol and 5 mM β-mercaptoethanol, pH 7.8.
General Procedure for PRMT6 Enzyme Assays on Peptide Substrates.
as §2, with “PRMT6,” for “PRMT1,”, “PRMT6” for “PRMT1”, “400” for “300”
as §3, §4

[2] = peptide substrate, 3H-SAM Flashplate assay, read-out: PRMT6 IC50

T2 sequence (Q96LA8 with tags, fused parts or gaps): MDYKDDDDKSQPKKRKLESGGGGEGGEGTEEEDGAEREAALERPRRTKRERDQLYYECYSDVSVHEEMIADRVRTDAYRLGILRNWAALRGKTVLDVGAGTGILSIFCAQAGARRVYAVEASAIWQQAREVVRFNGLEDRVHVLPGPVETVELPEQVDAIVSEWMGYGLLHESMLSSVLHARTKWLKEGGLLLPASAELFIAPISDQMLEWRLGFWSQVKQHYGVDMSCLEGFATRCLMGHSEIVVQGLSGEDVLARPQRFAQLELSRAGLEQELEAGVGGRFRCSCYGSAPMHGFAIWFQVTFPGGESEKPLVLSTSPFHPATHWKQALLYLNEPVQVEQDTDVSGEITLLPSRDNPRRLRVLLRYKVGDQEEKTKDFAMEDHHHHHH
T1 sequence (Q99873 with tags, fused parts or gaps): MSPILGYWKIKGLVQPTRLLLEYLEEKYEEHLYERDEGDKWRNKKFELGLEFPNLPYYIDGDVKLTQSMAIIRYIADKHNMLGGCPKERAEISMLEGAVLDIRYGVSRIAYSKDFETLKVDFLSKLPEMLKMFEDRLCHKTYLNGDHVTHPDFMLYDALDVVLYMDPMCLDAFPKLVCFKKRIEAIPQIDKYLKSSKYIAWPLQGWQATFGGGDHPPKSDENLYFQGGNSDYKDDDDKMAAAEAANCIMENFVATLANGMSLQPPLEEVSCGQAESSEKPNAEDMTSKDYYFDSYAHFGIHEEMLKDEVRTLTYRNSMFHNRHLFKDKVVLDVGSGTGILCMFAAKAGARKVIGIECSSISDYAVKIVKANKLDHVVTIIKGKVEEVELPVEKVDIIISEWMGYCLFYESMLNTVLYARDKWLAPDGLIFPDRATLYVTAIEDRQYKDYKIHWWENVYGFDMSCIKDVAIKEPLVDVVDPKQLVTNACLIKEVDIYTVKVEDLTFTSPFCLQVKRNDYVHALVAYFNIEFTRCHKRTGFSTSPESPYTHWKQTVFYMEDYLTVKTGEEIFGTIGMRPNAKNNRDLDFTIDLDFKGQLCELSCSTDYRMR
Sequence of human PRMT8 (Q9NR22 whole entry): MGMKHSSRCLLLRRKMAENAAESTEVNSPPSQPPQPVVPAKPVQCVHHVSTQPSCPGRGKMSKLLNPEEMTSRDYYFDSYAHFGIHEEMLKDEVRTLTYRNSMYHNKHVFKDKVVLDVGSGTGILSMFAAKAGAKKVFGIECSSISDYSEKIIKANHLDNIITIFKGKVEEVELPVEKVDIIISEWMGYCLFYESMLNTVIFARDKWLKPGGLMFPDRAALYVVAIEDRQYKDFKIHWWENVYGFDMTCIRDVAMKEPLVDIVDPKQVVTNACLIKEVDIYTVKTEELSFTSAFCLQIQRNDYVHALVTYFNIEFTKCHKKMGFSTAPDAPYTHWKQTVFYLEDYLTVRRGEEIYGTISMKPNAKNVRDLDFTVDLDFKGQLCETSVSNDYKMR

| SMILES | ICW EC30 [1] [µM] | IC50 (human PRMT1) [nM] | IC50 (human PRMT8) [µM] | IC50 (human PRMT6; PRMT6 IC50 (uM)) [µM] | IC50 (human PRMT6; [2]) [µM] |
| --- | --- | --- | --- | --- | --- |
| CNCCN(C)Cc1c[nH]nc1-c1ccc(N(C)CC(C)C)cc1 [Compound 102] | 1.057 | 31.9 | 0.0819 | 0.236 | – |
| CNCCN(C)Cc1n[nH]cc1-c1cc(C(=O)C(C)C)cc(C(F)(F)F)c1 [Compound 134] | >6.7 | 121 | 0.168 | – | 2.07 |
| CNCCN(C)Cc1c[nH]nc1-c1ccc(OCCOc2ccccc2)cc1 [Compound 61] | 0.13 | 12.9 | 0.0374 | – | 0.0114 |
| CNCCN(C)Cc1ccnn1C1CCC2(CCOC2)CC1 (stereo not drawn) [Compound 54] | 0.68 | 11.2 | 0.0535 | – | 0.0329 |
| CNCCN(C)Cc1c[nH]nc1-c1ccc(OCCc2ccccc2)cc1 [Compound 25] | 0.097 | 6.68 | 0.0173 | – | 0.011 |
| CNCCN(C)Cc1ccnn1-c1ccc(COC)cc1 [Compound 44] | 0.13 | 9.25 | 0.0235 | – | 0.0565 |
| CNCCN(C)Cc1c[nH]nc1-c1ccc(OC2CC(O)C2)cc1 (stereo not drawn) [Compound 85] | 3.594 | 21.3 | 0.0853 | – | 0.0144 |
| CNCCN(C)Cc1c[nH]nc1-c1cc(OCCOC)cc(C(C)C)c1 [Compound 95] | 0.726 | 25.8 | 0.0843 | – | 0.771 |
| CN(CCN)Cc1c[nH]nc1-c1ccc(N2CCOCC2)cc1 [Compound 124] | 3.978 | 44.3 | 0.413 | – | 0.107 |
| CNCCN(C)Cc1c[nH]nc1-c1ccc(OCCOc2cccc(OCCN3CCOCC3)c2)cc1 [Compound 8] | 0.2337 | 4.91 | 0.00939 | – | 0.00449 |
| CNCCN(C)Cc1c[nH]nc1-c1ccc(OC(CO)CC(C)C)cc1 (stereo not drawn) [Compound 118] | 1.175 | 41.2 | 0.0955 | – | 0.0342 |
| CNCCN(C)Cc1c[nH]nc1-c1cc(CC(F)(F)F)cc(OCCOC)c1 [Compound 70] | 0.494 | 15.2 | 0.0511 | 1.27 | – |
| CNCCN(C)Cc1c[nH]nc1-c1ccc(OCCOc2ccc(OCCN3CCOCC3)cc2)cc1 [Compound 46] | 0.2516 | 9.49 | 0.026 | – | 0.00456 |
| CNCCN(C)Cc1c[nH]nc1-c1cc(F)c(OCC2CCOCC2)c(C(F)(F)F)c1 [Compound 116] | 3.806 | 39.1 | 0.118 | 0.0184 | – |
| CNCCN(C)Cc1ccnn1-c1cc(OCCOC)cc(C(F)(F)F)c1 [Compound 154] | >20 | 2030 | 8.45 | – | > 10 |
| CNCCN(C)Cc1c[nH]nc1-c1cc(Cl)c(OCC2CCC2)c(Cl)c1 [Compound 2] | 0.304 | 3.61 | 0.0218 | – | 0.012 |
| CNCCN(C)Cc1c[nH]nc1-c1ccc(OCCCOC)c(OCC2CCOC2)c1 (stereo not drawn) [Compound 68] | 3.454 | 14.8 | 0.295 | – | 0.038 |
| CNCCN(C)Cc1c[nH]nc1-c1ccc(OC2CCC(OC(C)C)CC2)cc1 (stereo not drawn) [Compound 89] | 0.4491 | 23.1 | 0.0475 | – | 0.0251 |
| CCOCC(C)(C)c1ccc(-c2n[nH]cc2CN(C)CCNC)cc1 [Compound 105] | 2.748 | 34 | 0.106 | 0.0559 | – |
| CNCCN(C)Cc1c[nH]nc1-c1ccc(OCCOc2cccc(CO)c2)cc1 [Compound 143] | 0.5443 | 6.69 | 0.0258 | – | 0.00448 |
| C=C(C)COc1c(Cl)cc(-c2n[nH]cc2CN(C)CCNC)cc1C(F)(F)F [Compound 39] | 0.439 | 8.31 | 0.0122 | – | 0.0295 |
